Experimental data: patent US12077503B2, “Substituted cyclic amides and their use as herbicides” (FMC CORPORATION, priority 2015, dated 2024)

Experiments:
Assay type in all cases: in vivo
Kochia (Kochia scoparia) [1] = assay: Test A preemergence; details: Bassia scoparia, pre-emergence, 240 h, preemergence, 0 to 100 scale where 0 is no effect and 100 is complete control, read-out: Kochia plant response rating
How it was run: (§1)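 Treatment is preemergence as a directed soil spray after planting, or postemergence at the one- to two-leaf stage, with test chemical in a non-phytotoxic solvent mixture plus surfactant. Plants stay in the greenhouse about 10 d before visual injury scoring on a 0 to 100 scale versus untreated controls.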

[2] = system: barnyardgrass (Echinochloa crus-galli); assay: Test A preemergence; details: Echinochloa crus-galli, pre-emergence, 240 h, preemergence, 0 to 100 scale where 0 is no effect and 100 is complete control, read-out: Barnyardgrass plant response rating
How it was run: as §1

[3] = system: giant foxtail (Setaria faberii); assay: Test A preemergence; details: Setaria faberi, pre-emergence, 240 h, preemergence, 0 to 100 scale where 0 is no effect and 100 is complete control, read-out: Foxtail, Giant plant response rating
How it was run: as §1

[4] = system: pigweed (Amaranthus retroflexus); assay: Test A preemergence; details: Amaranthus retroflexus, pre-emergence, 240 h, preemergence, 0 to 100 scale where 0 is no effect and 100 is complete control, read-out: Pigweed plant response rating
[5] = system: ragweed (common ragweed, Ambrosia elatior); assay: Test A preemergence; details: Ambrosia artemisiifolia, pre-emergence, 240 h, preemergence, 0 to 100 scale where 0 is no effect and 100 is complete control, read-out: Ragweed plant response rating
How it was run: as §1

[6] = system: ryegrass, Italian (Italian ryegrass, Lolium multiflorum); assay: Test A preemergence; details: Lolium multiflorum, pre-emergence, 240 h, preemergence, 0 to 100 scale where 0 is no effect and 100 is complete control, read-out: Ryegrass, Italian plant response rating
How it was run: as §1

[7] = system: Galium (catchweed bedstraw, Galium aparine); assay: Test A postemergence; details: Galium, post-emergence, 240 h, postemergence
How it was run: as §1

Kochia (Kochia scoparia) [8] = assay: Test A postemergence; details: Bassia scoparia, post-emergence, 240 h, postemergence
How it was run: as §1

[9] = system: barnyardgrass (Echinochloa crus-galli); assay: Test A postemergence; details: Echinochloa crus-galli, post-emergence, 240 h, postemergence
How it was run: as §1

corn (Zea mays) = assay: Test A postemergence; details: Zea mays, post-emergence, 240 h, postemergence
How it was run: as §1

[10] = system: giant foxtail (Setaria faberii); assay: Test A postemergence; details: Setaria faberi, post-emergence, 240 h, postemergence
How it was run: as §1

[11] = system: pigweed (Amaranthus retroflexus); assay: Test A postemergence; details: Amaranthus retroflexus, post-emergence, 240 h, postemergence
How it was run: as §1

[12] = system: ragweed (common ragweed, Ambrosia elatior); assay: Test A postemergence; details: Ambrosia artemisiifolia, post-emergence, 240 h, postemergence
How it was run: as §1

[13] = system: ryegrass, Italian (Italian ryegrass, Lolium multiflorum); assay: Test A postemergence; details: Lolium multiflorum, post-emergence, 240 h, postemergence
How it was run: as §1

[14] = system: wheat (Triticum aestivum); assay: Test A postemergence; details: Triticum aestivum, post-emergence, 240 h, postemergence
How it was run: as §1

[15] = 125 g ai/ha, visual injury rating, approximately 10 d

`CSc1ccccc1NC(=O)[C@H]1C(=O)NC[C@@H]1c1ccc(F)c(C#N)c1` [Compound 1201] showed a pest or weed control at 125 g/ha (Kochia (Kochia scoparia) [1]; [15]) of 30%, a pest or weed control at 500 g/ha (Kochia (Kochia scoparia) [1]; 500 g ai/ha) of 70% and a pest or weed control at 125 g/ha [2, 15] of 0%. The pest or weed control at 500 g/ha ([2]; 500 g ai/ha) was 70%, the pest or weed control at 125 g/ha [3, 15] was 70% and the pest or weed control at 500 g/ha ([3]; 500 g ai/ha) was 80%. It also gave a pest or weed control at 125 g/ha [4, 15] of 20%, a pest or weed control at 500 g/ha ([4]; 500 g ai/ha) of 70% and a pest or weed control at 125 g/ha [5, 15] of 60%. For the same compound, the pest or weed control at 500 g/ha ([5]; 500 g ai/ha) was 70%, the pest or weed control at 125 g/ha [6, 15] was 0% and the pest or weed control at 500 g/ha ([6]; 500 g ai/ha) was 0%. The pest or weed control at 125 g/ha ([7]; 125 g ai/ha, visual injury vs untreated controls after approx. 10 d, 0 = no effect, 100 = complete control, read-out: Galium plant response rating (0 to 100 scale)) was 30%, the pest or weed control at 500 g/ha ([7]; 500 g ai/ha, 0 to 100 scale, 0 is no effect, 100 is complete control, read-out: Galium plant response rating) was 50% and the pest or weed control at 125 g/ha (Kochia (Kochia scoparia) [8]; 125 g ai/ha, visual injury vs untreated controls after approx. 10 d, 0 = no effect, 100 = complete control, read-out: Kochia plant response rating (0 to 100 scale)) was 40%. It also gave a pest or weed control at 500 g/ha (Kochia (Kochia scoparia) [8]; 500 g ai/ha, 0 to 100 scale, 0 is no effect, 100 is complete control, read-out: Kochia plant response rating) of 70%, a pest or weed control at 125 g/ha ([9]; 125 g ai/ha, visual injury vs untreated controls after approx. 10 d, 0 = no effect, 100 = complete control, read-out: Barnyardgrass plant response rating (0 to 100 scale)) of 70% and a pest or weed control at 500 g/ha ([9]; 500 g ai/ha, 0 to 100 scale, 0 is no effect, 100 is complete control, read-out: Barnyardgrass plant response rating) of 100%. For the same compound, the plant injury at 125 g/ha (corn (Zea mays); 125 g ai/ha, visual injury vs untreated controls after approx. 10 d, 0 = no effect, 100 = complete control, read-out: Corn plant response rating (0 to 100 scale)) was 0%, the plant injury at 500 g/ha (corn (Zea mays); 500 g ai/ha, 0 to 100 scale, 0 is no effect, 100 is complete control, read-out: Corn plant response rating) was 0% and the pest or weed control at 125 g/ha ([10]; 125 g ai/ha, visual injury vs untreated controls after approx. 10 d, 0 = no effect, 100 = complete control, read-out: Foxtail, Giant plant response rating (0 to 100 scale)) was 70%. The pest or weed control at 500 g/ha ([10]; 500 g ai/ha, 0 to 100 scale, 0 is no effect, 100 is complete control, read-out: Foxtail, Giant plant response rating) was 90%, the pest or weed control at 125 g/ha ([11]; 125 g ai/ha, visual injury vs untreated controls after approx. 10 d, 0 = no effect, 100 = complete control, read-out: Pigweed plant response rating (0 to 100 scale)) was 20% and the pest or weed control at 500 g/ha ([11]; 500 g ai/ha, 0 to 100 scale, 0 is no effect, 100 is complete control, read-out: Pigweed plant response rating) was 60%. It also gave a pest or weed control at 125 g/ha ([12]; 125 g ai/ha, visual injury vs untreated controls after approx. 10 d, 0 = no effect, 100 = complete control, read-out: Ragweed plant response rating (0 to 100 scale)) of 0%, a pest or weed control at 500 g/ha ([12]; 500 g ai/ha, 0 to 100 scale, 0 is no effect, 100 is complete control, read-out: Ragweed plant response rating) of 30% and a pest or weed control at 125 g/ha ([13]; 125 g ai/ha, visual injury vs untreated controls after approx. 10 d, 0 = no effect, 100 = complete control, read-out: Ryegrass, Italian plant response rating (0 to 100 scale)) of 0%. It also gave a pest or weed control at 500 g/ha ([13]; 500 g ai/ha, 0 to 100 scale, 0 is no effect, 100 is complete control, read-out: Ryegrass, Italian plant response rating) of 0%, a plant injury at 125 g/ha ([14]; 125 g ai/ha, visual injury vs untreated controls after approx. 10 d, 0 = no effect, 100 = complete control, read-out: Wheat plant response rating (0 to 100 scale)) of 0% and a plant injury at 500 g/ha ([14]; 500 g ai/ha, 0 to 100 scale, 0 is no effect, 100 is complete control, read-out: Wheat plant response rating) of 0%.
